Results on one molecule are retold here after patent publication US9375388B2, “Nanoparticle based cosmetic composition” (Indian Institute of Technology, priority 2011, dated 2016).

The nature of the series: Confocal laser scanning microscopy of skin penetration of dye. It is filed as in vitro ADME. The settings on record: CLSM of rat skin, calcein dye (FIG. 2). The source says: FIG. 2. CLSM image of rat skin: without calcein dye under (a) calcein filter (b) bright field; with free calcein solution under (c) calcein filter (d) bright field; with calcein-loaded SPC liposomes under (e) calcein filter (f) bright field.

With `O=C(O)CN(CC(=O)O)Cc1cc2c(cc1O)Oc1cc(O)c(CN(CC(=O)O)CC(=O)O)cc1C21OC(=O)c2ccccc21` [free dye, calcein], the “Penetration of dye through skin” value is “visible only at the surface of the skin and around the hair follicles”.
